In patent US6410054B1, “Immediate release eplerenone compositions” (G. D. Searle & Co., priority 1998, dated 2002):

How the values were obtained:
[1] = Single dose study: plasma pharmacokinetics of eplerenone, open lactone ring form, spironolactone; settings: open ring lactone in plasma
Experimental: The pharmacokinetics, safety and antialdosterone activity of single 10, 50, 100, 300 and 1000 mg oral doses of eplerenone were evaluated in a single-center, randomized, double-blind, placebo-controlled study.
The study employed seven parallel dose groups of eight healthy male humans.
The eplerenone capsules administered corresponded to the capsules (or combinations of the capsules) disclosed in Examples 4, 5, 7 and 8 above. The placebo was a conventional capsule containing lactose. […] The fludrocortisone used in the study consisted of commercially available fludrocortisone tablets (Florinef®, Squibb BV).
The subjects, who underwent a ten hour food fast prior to administration of the dose, received a single oral dose of one of the study medications together with about 180 mL of water at 0800 hours. […] Each dose of fludrocortisone was administered with 150 mL of water except for the 1.0 mg dose which was administered with 200 mL of water.
The plasma samples collected from subjects dosed with eplerenone were assayed for concentrations of eplerenone and the open lactone ring form of eplerenone. […] A subset of plasma samples was also assayed for testosterone levels. The urine collected was analyzed to determine concentrations and amounts of eplerenone and the open lactone ring form of eplerenone, the amount of sodium and potassium excreted, and the urinary log10 (sodium/potassium) ratio.

[2] = ADME study of [14C]eplerenone oral solution: plasma, whole blood, saliva pharmacokinetics; format: in vivo, humans; settings: for Plasma Concentration: 100 mg oral solution of [14C]eplerenone
Experimental: An open-label, single dose study was employed to evaluate the absorption, distribution, metabolism and elimination profile of a single 100 mg dose of an oral solution of eplerenone.
The study employed eight healthy male humans. Each subject received a single 100 mg oral dose of a solution of [^14C]eplerenone (specific activity 0.75 μCi/mg). Plasma, saliva, breath, urine and fecal samples were collected at predetermined intervals and analyzed for sample radioactivity and the concentration of eplerenone and its open lactone ring form. Safety was determined on the basis of laboratory tests, vital signs, and the occurrence and types of adverse events.
The subjects, who underwent an overnight food fast prior to administration of the dose, received at 0800 hours a single 100 mg oral dose of an aqueous oral solution of radiolabeled eplerenone reconstituted in 80 mL of an apple juice/hydroxypropyl-β-cyclodextrin mixture. The subjects swallowed about 200 mL of water one, two and three hours post dosing.
Blood samples were collected at −0.5 (predose), 0.5, 1, 1.5, 2, 2.5, 3, 4, 6, 8, 12, 16, 24, 36, 48, 72 and 96 hours post dose. […] Individual fecal samples were collected beginning immediately after dosing and continuing through 0800 hours on day 8. In addition, one predose fecal sample was provided. Saliva samples were taken at 0.5 hour predose and at 0.5, 1, 2, 4, 6, 12, and 24 hours postdose. Breath samples were taken at 0.5 hour predose and at 1, 2, 3, 4, 6, 8, 12, 24, 36, 48 and 72 hours postdose.

[3] = plasma, 100 mg eplerenone oral solution, single dose

## COC(=O)C1CC2=CC(=O)CCC2(C)C23OC2CC2(C)C(CCC2(O)CCC(=O)O)C13 (stereo not shown) [Open Ring Lactone]
[1]; 50 mg Epl. single oral dose
  AUC(0-96): 142.8 (ng/mL) hr
  Mean Residence Time: 2.8 h
  Oral Clearance: 491.3 L/h
  T1/2: 2.7 h
  Tmax: 1.0 h
[1]; 100 mg Epl. single oral dose
  AUC(0-96): 246.8 (ng/mL) hr
  Mean Residence Time: 3.3 h
  Oral Clearance: 445.2 L/h
  T1/2: 2.7 h
  Tmax: 1.1 h
[1]; 300 mg Epl. single oral dose
  AUC(0-96): 1065.1 (ng/mL) hr
  Mean Residence Time: 4.2 h
  Oral Clearance: 299.8 L/h
  T1/2: 2.8 h
  Tmax: 1.3 h
[1]; 1000 mg Epl. single oral dose
  AUC(0-96): 3483.5 (ng/mL) hr
  Mean Residence Time: 5.7 h
  Oral Clearance: 330.7 L/h
  T1/2: 2.6 h
  Tmax: 2.5 h
[2]; 0.5 hours after dosing
  Plasma Concentration: 63.2 ng/mL
[2]; 1.0 hours after dosing
  Plasma Concentration: 78.0 ng/mL
[2]; 1.5 hours after dosing
  Plasma Concentration: 70.8 ng/mL
[2]; 2.0 hours after dosing
  Plasma Concentration: 59.9 ng/mL
[2]; 2.5 hours after dosing
  Plasma Concentration: 51.0 ng/mL
[2]; 3.0 hours after dosing
  Plasma Concentration: 46.9 ng/mL
[2]; 4.0 hours after dosing
  Plasma Concentration: 41.9 ng/mL
[2]; 6.0 hours after dosing
  Plasma Concentration: 23.0 ng/mL
[2]; 8.0 hours after dosing
  Plasma Concentration: 13.0 ng/mL
[2]; 48.0 hours after dosing
  Plasma Concentration: 0 ng/mL
[2]; 72.0 hours after dosing
  Plasma Concentration: 0 ng/mL
[2]; −0.5 hours after dosing
  Plasma Concentration: 0 ng/mL
[2]; [3]
  AUC(0-96): 352.2 (ng/mL) hr
  Mean Residence Time: 3.4 h
  Oral Clearance: 306.3 L/h
  T1/2: 3.1 h
  Tmax: 1.1 h
